According to patent publication US20040214158A1, “Treatment of human papillomavirus (hpv)-infected cells” (priority 2000, published 2004):

Assays:
CaSki cells [1] = test: TUNEL apoptosis detection in transfected CaSki cells; assay type: cell-based, human
Text: (§1) The DeadEnd Colorimetric Apoptosis Detection System (Promega, Wis.) is a modified TUNEL (TdT-mediated dUTP Nick-End Labeling) assay in which the enzyme Terminal deoxynucleotidyl Transferase (TdT) incorporates biotinylated nucleotides at the 3′-OH DNA ends (1, 20). Streptavidin horseradish-peroxidase is then bound to the biotinylated nucleotides, which are detected by hydrogen peroxide and diaminobenzidine (DAB), a stable chromogen. Using this procedure, apoptotic nuclei stained dark brown when visualized under a light microscope.

CaSki cells [2] = test: MTS cell proliferation assay, GCV/ACV on transfected CaSki cells; settings: for effect on cell viability: CaSki cells mock-transfected or transfected with control plasmid pNSGL0; for growth inhibition: CaSki cells transfected with HPV 16 LCR-driven HSV 1-TK plasmid, 20-30 μg/ml for 6-8 days
Description: All transfections were performed by calcium phosphate mediated transfection using the Profection Mammalian Transfection Systems (Promega, Wis.) according to the manufacturer's instructions. Cells were seeded at a density of 2×10^5 cells in each well in two mls of DMEM and grown to 50-60% confluence. One μg of plasmid DNA was used for transfecting each cell line. The calcium phosphate-DNA mix was overlaid on the cells for four to six hours and then replaced by two mls of complete medium. For mock-transfections, no DNA was added to the calcium phosphate transfection reagent. To measure promoter activity with a standard luciferase assay (Promega, Wis.) the transfected cells were harvested after 24-48 hours. To analyze HSV 1-TK gene expression by RT-PCR, the transfected cells were harvested 48-60 hours after transfection.
The CaSki, SiHa, HSC3 and HeLa cell lines were transfected with the pNSGLTK-8 or pNSGL0 plasmids or mock transfected with no plasmid. […] The absorbance at 490 nm is a measure of the number of living cells in the culture. Percent survival was calculated as follows: [formula]

untransfected cell lines = test: TUNEL staining of untransfected cell lines; assay type: cell-based; settings: 20.0 μg/ml, six to eight days (data not shown)
Text: as §1

SiHa cells [3] = test: MTS cell proliferation assay, GCV on transfected SiHa cells; assay type: cell-based, human; settings: SiHa cells transfected with pNSGLTK-8, 20.0 μg/ml
Description: (§2) Percent survival was calculated as follows: [formula]

HeLa cells = test: GCV killing of transfected HeLa cells; assay type: cell-based, human; settings: HeLa cells transfected with pNSGLTK-8; 20.0 μg/ml, two weeks (data not shown)
Description: as §2

SiHa cells [4] = test: TUNEL apoptosis detection in transfected SiHa cells; assay type: cell-based, human; settings: SiHa cells transfected with pNSGLTK-8; 20.0 μg/ml GCV, eight to ten days
Text: as §1

[5] = system: VERO—African Green Monkey kidney cell line; test: GCV cytotoxicity on transfected VERO cells; assay type: cell-based; settings: VERO cells transfected with pNSGLTK-8; different concentrations, 6 days
Text: (§3) To test the specificity of the methods described herein, an HPV positive cell line (CaSKi) and four HPV-negative cell lines were transfected with the plasmid plasmid pNSGLTK-8 described herein.

[6] = system: Human oral squamous cell carcinoma cell, SSC9; test: GCV cytotoxicity on transfected SSC9 cells; assay type: cell-based; settings: SSC9 cells transfected with pNSGLTK-8; different concentrations, 6 days
Text: as §3

HSC3 cells = test: GCV cytotoxicity on transfected HSC3 cells; assay type: cell-based, human; settings: HSC3 cells transfected with pNSGLTK-8; different concentrations, 6 days
Description: as §2

CaSki cells [7] = test: Confocal microscopy of HSV1-TK protein and PI nuclear staining in transfected CaSki cells; assay type: cell-based, human; settings: CaSki cells transfected with pNSGLTK-8; 20 ug/ml GCV for 2 days
Description: CaSki cells were transfected with HPV16 LCR driven HSV1-TK construct (pNSGLTK-8). After 48 hours, cell were fixed and HSV-TK protein was detected using polyclonal rabbit anti-HSV1-TK antibody and FITC-conjugated goat anti-rabbit secondary antibody. The nuclear staining was done with propidium iodide. The cells were examined by confocal microscopy.
Cell were fixed and HSV1-TK protein was detected using polyclonal rabbit anti-HSV1-TK antibody and FITC-conjugated goat anti-rabbit secondary antibody. The nuclear staining was done with propidium iodide. The cells were examined by confocal microscopy.

[8] = taken orally by patients, clinical trials (Sugawara et al. 2000); cited from earlier work

Row | SMILES | apoptosis (TUNEL staining, morphology) (CaSki cells [1]; cells transfected with pNSGLTK-8, 20.0 μg/ml ACV, six days (FIG. 12: CaSki)) | effect on cell viability (CaSki cells [2]) | growth inhibition (CaSki cells [2]) | concentration showing cytotoxic effects (CaSki cells [2]; CaSki cells transfected with pNSGLTK-8, ten days exposure) | apoptotic cells (TUNEL staining) (untransfected cell lines) | cells killed (SiHa cells [3]; six days) | cells killed (SiHa cells [3]; two weeks (data not shown)) | apoptosis (TUNEL staining, morphology) (CaSki cells [1]; CaSki cells transfected with pNSGLTK-8, 20.0 μg/ml GCV, four days) | cells killed (HeLa cells) | apoptosis (TUNEL staining, morphology) (SiHa cells [4]) | cytotoxic effect [5] | cytotoxic effect [6] | cytotoxic effect (HSC3 cells) | cytotoxicity (CaSki cells [2]; CaSKi cells transfected with pNSGLTK-8, 6 days exposure) | effect on cell viability, dose dependence (CaSki cells [2]; CaSki cells transfected with pNSGLTK-8, 0, 5, 10, 20 μg/ml GCV, six days) | cells killed (CaSki cells [2]; CaSki cells transfected with pNSGLTK-8, 20.0 μg/ml, 10 days) | maximal cell death (CaSki cells [2]; CaSki cells transfected with pNSGLTK-8, 20.0 μg/ml, six days) | nuclear staining by PI (CaSki cells [7]) | bioavailability [8]
1 | Nc1nc2c(ncn2COCCO)c(=O)[nH]1 [ACV, acyclovir] | Typical apoptotic morphology of TUNEL-stained nuclei | refractory | approximately 80% | 30.0 µg/mL | did not show an increase in apoptotic cells |  |  |  |  |  |  |  |  |  |  |  |  |  | 
2 | Nc1nc(O)c2ncn(COC(CO)CO)c2n1 [GCV, ganciclovir] |  | No significant effect on cell viability | approximately 80% |  | did not show an increase in apoptotic cells | approximately 42% | more than 90% | characteristic apoptotic morphology | more than 90% | significant cell death associated with typical apoptotic morphology | did not show any significant cytotoxic effect | did not show any significant cytotoxic effect | did not show any significant cytotoxic effect | cytotoxicity is restricted to HPV positive cell line CaSKi only | dose-dependent effect | more than 95% | approximately 80% | majority of nuclei look disrupted due to early apoptosis | 
3 | CC(C)[C@H](N)C(=O)OCC(CO)OCn1cnc2c(=O)nc(N)[nH]c21 (stereo partly shown) [valganciclovir] |  |  |  |  |  |  |  |  |  |  |  |  |  |  |  |  |  |  | enhance the bioavailability of ganciclovir
